Source: patent US20230266303A1, “SYSTEM” (GTINVENT LIMITED, priority 2020, published 2023)
Values joined by “and” are separate entries in the source; they are usually repeats but may differ in a detail not shown here. Equal values may be shown once.

Legend:
Format in all cases: cell-based, human
dSH-SY5Y cells = experiment: Internalisation of dGAE-488 into cells by confocal microscopy
Method: Undifferentiated SH-SY5Y human neuroblastoma cells were grown in Dulbecco's Modified Eagle Medium/Nutrient Mixture F-12 (DMEM/F-12) supplemented with 10% Foetal Calf Serum (FCS), 1% Penicillin/Streptomycin (P/S) and 1% L-glutamine. For differentiation, SH-SY5Y cells were plated at a density of 50,000 cells per well in 24-well plates or 300,000 cells per well in 6-well plates. For immunofluorescence, cells were plated onto Menzel-Gläser coverslips (Thermo Scientific). For live-cell imaging, cells were plated on 35-mm dishes on a 1.5-mm coverslip (Mattek). On the first day of differentiation, media was replaced with low-serum culture media (DMEM/F-12 containing 1% FCS, 1% P/S and 1% L-glutamine) containing 10 μM all-trans retinoic acid (RA) (Sigma-Aldrich) and cells were incubated for 48 h. On day 3, this process was repeated with fresh RA and cells were incubated for a further 48 h. On day 5, the cells were washed once in serum-free culture media to remove traces of serum. […] Differentiated cells (dSH-SY5Y) were ready to use for experiments on day 7. […]
(§1) FIJI (https://fiji.sc) imaging processing package (J. Schindelin et al., Nat. Methods, vol. 9, no. 7, pp. 676-682, (2012)) was used for all image analysis. For quantification of fluorescence intensities, images were Z-projected to maximal intensity. […] Area-integrated intensity and mean grey value were measured as well as three selections from around the cell with no fluorescence (background). The corrected total cell fluorescence (CTCF) was then calculated using the equation: […]
For quantification of internalised dGAE-488, a focal plane from the middle of the cell that contained maximal DAPI fluorescence was selected and subjected to analysis.
The uptake of soluble and aggregated dGAE into dSH-SY5Y cells was investigated in order to examine whether aggregation state affects the efficiency of internalisation. The labelled dGAE-488 form was used to permit uptake to be visualised and measured having corrected for total cell fluorescence. […]

[1] = test system: endogenous tau in dSH-SY5Y cells; experiment: Immunofluorescence of endogenous tau (AT180, AT8, Tau-1) after dGAE-488 exposure; details: 1 μM soluble dGAE-488, 24 h
Method: Cell culture medium was aspirated from dSH-SY5Y cells and washed once with PBS. Cells were fixed in 4% (w/v) paraformaldehyde (PFA) in PBS for 15 minutes followed by three washes in PBS. For permeabilization, the cells were incubated in 0.25% (v/v) Triton X-100 in PBS for 10 minutes. Cells were blocked in 2% (w/v) BSA in PBS for 1 h, followed by three washes in PBS. Primary antibodies diluted in 2% (w/v) BSA in PBS and were incubated with the cells for 1 h. The primary antibodies and dilutions used were; AT180 (anti-pT231) (1:250) (Thermo Scientific), AT8 (anti-pS202-T205) (1:500) (Thermo Scientific) and Tau1 (dephosphorylated tau at S195, 198, 199 and 202) (Merck Millipore). Cells were incubated with goat anti-mouse-Alexa Fluor® 594 (1:1000) (Invitrogen™, Thermo Scientific) diluted in 2% (w/v) BSA in PBS for 1 h in the dark. Cells were washed 3 times in PBS between antibody incubations. Cells were mounted onto glass slides using Prolong Gold mounting medium containing 4,6-diamidino-2-phenylindole (DAPI). […]
as §1
Therefore, it was further investigated whether internalised soluble dGAE-488 may be capable of altering the aggregation or phosphorylation state of endogenous tau. […] Cells were examined for colocalisation of internalised dGAE-488 and endogenous tau and the fluorescence intensity of labelled tau in the cell body was quantified in individual cells for each antibody. […] We have previously shown that tau dephosphorylated between amino acids 192-204 detected using Tau-1 antibody, is found in the nucleus in dSH-SY5Y cells (Maina et al., Acta Neuropath. Comm, Vol. 6 No. 70, pp 1-13 (2018)).

[2] = test system: acidic vesicles (lysosomes and endosomes) in dSH-SY5Y cells; experiment: LysoTracker labelling of acidic organelles and colocalisation with dGAE-488; details: soluble dGAE-488, 24 h; buffer 100±5.23%
Method: Cells were plated on 35-mm dishes on a 1.5-mm coverslip (Mattek). Following differentiation, dGAE-488 (5 μM) was added to the cells for 24 h. For labelling lysosomes and endosomes, LysoTracker® red (Life Technologies) was diluted in culture media at a final concentration of 50 nM and incubated for 90 mins before imaging using a Leica SP8 confocal microscope.
All confocal microscopy imaging was carried using a Leica SP8 confocal microscope. The instrument setting used PMT 3 and PMT Trans channels/lasers and images were acquired with a HC PLAPoCs2 63×/1.40 oil-immersion objective lens. Samples were scanned sequentially to prevent spectral bleed through. All images were collected as Z-stacks for all channels using a step size of 0.5 μm. Five to ten Z-stacks were taken for each sample and each experiment was repeated three times or more. […]
Intracellular fluorescent punctate particles were observed within the cytoplasm, close to the nucleus after 24 h of exposure of neurons to soluble dGAE-488. […] There was a significant increase in the intensity of the LysoTracker® fluorescence in cells exposed to soluble dGAE-488 compared to buffer-treated control cells (211.9±9.9%, p<0.0001; FIG. 6Ai, Aii).

In the case of “dGAE-488: dGAE covalently labelled with Alexa Fluor 488”, the “488 fluorescence intensity in the cell body (internalisation)” value (dSH-SY5Y cells; aggregated (72 h agitated) dGAE-488, 1 μM, 24 h, mean±SEM, b194 prints AU per cell) is reported as 474.1±95.97 AU and 474±96 AU, the “incubation time at which internalised protein is detected in cells” value (dSH-SY5Y cells; soluble form, 5 μM dGAE-488, live confocal imaging t=0 h to 14 h) is reported as 2 h and the “AT8 (pS202-T205) fluorescence intensity as a percentage of buffer-treated cells” value ([1]; buffer 100±3.51%) is reported as 270.7±22.5%. The “AT180 (pT231) fluorescence intensity as a percentage of buffer-treated cells” value ([1]; buffer 100±5.2%) was 143.5±7.8%, the “Tau-1 (dephosphorylated tau) fluorescence intensity as a percentage of buffer-treated cells” value ([1]; buffer 100±7.3%) was 59.17±3.6% and the “LysoTracker fluorescence intensity as a percentage of buffer-treated cells” value [2] was 211.9±9.89% and 211.9±9.9%.
